SMILES strings stand for the structures.

For the assay, the target named is T1, integrin α4β7 (Homo sapiens, UniProt P13612+P26010).
T1 sequence (P13612 34-977 limits assumed): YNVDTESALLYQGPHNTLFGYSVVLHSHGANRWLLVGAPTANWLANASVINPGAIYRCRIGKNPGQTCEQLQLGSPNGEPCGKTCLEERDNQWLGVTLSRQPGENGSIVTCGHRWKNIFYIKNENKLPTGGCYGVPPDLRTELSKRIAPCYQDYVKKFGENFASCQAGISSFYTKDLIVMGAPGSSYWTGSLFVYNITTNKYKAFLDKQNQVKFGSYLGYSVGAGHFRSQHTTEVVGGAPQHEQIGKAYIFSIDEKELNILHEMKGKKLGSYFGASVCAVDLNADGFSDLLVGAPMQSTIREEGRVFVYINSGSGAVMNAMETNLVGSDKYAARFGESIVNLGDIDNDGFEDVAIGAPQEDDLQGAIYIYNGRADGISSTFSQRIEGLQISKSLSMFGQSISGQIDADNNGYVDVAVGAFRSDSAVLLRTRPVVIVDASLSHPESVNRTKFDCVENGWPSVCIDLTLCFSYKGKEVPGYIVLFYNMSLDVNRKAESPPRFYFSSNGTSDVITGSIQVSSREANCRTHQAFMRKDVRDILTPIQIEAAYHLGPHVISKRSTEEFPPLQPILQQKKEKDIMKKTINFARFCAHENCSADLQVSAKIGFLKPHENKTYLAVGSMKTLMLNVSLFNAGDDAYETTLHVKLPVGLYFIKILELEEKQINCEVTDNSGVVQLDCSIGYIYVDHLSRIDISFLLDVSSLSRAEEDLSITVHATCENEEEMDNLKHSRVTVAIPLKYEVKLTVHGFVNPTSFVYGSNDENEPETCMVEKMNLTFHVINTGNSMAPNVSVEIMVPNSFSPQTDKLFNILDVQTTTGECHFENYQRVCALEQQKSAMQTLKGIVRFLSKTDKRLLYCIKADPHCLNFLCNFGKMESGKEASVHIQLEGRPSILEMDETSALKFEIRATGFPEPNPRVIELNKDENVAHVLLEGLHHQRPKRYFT
T1 sequence (P26010 20-723 limits assumed): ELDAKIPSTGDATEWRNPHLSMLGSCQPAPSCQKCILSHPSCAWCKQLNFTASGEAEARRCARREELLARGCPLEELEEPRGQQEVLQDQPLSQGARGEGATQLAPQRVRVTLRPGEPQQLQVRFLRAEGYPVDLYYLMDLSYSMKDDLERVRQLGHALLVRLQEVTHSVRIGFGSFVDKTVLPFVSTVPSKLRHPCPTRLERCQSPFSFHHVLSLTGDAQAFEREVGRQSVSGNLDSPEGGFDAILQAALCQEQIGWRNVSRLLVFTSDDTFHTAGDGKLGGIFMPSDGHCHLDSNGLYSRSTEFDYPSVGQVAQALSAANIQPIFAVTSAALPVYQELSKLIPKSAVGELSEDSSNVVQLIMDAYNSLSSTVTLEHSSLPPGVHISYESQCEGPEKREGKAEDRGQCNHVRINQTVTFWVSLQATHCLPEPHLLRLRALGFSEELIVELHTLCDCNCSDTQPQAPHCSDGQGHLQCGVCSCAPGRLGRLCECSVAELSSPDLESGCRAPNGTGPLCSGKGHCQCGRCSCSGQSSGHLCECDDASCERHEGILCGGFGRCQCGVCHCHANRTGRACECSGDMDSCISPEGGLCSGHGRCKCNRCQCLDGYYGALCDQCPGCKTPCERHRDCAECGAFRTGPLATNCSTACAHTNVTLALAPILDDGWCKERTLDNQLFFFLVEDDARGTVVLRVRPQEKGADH
Kind of assay: Fluorescence Polarization (FP) assay for α4β7 binding, competition with fluorescein-labeled peptide. Conditions: 6.5 nM integrin α4β7, 3 nM fluorescein-labeled peptide, 2 mM MnCl2; read-out: FP Assay (Example 5) IC50. The procedure: Three in vitro assays were used to examine the α4β7 mechanistic process used by cells: 1) ligand:receptor affinity, 2) the avidity of those interactions on a cell's surface, and 3) how those interactions fare under an imposing force. In Example 5, a Fluorescence Polarization (FP) assay is used to measure compound activity through binding competition with the fluorescein-labeled peptide. In Example 6, the potency of compounds against α4β7 is measured in the cell-based ligand binding assay (LBA), using RPMI 8866 cells incubated with the compound samples in competition with soluble MAdCAM-1 ligand. In Example 7, activity of compounds is evaluated in a cell adhesion assay that mechanistically tests what occurs in vivo when trafficking cells utilize α4β7 to adhere to MAdCAM-1 expressing HEVs of the gut during the extravasation process. In the cell adhesion assay of Example 7, a MAdCAM1-(Fc) is coated on plastic, and α4β7 expressing cells (RPMI-8866) are allowed to adhere to the coated surface in the presence of the test compounds. Next, the force of washing with buffer is applied to cells thereby testing the strength of that adhesion. Unattached cells are removed and the remaining adherent cells are quantified.
Fluorescence Polarization (FP) assays were used to measure compound activity through binding competition with the fluorescein-labeled peptide […]{Lys(FITC)}. In the assay, 6.5 nM of integrin α4β7 was incubated with the test compound in 2 mM manganese chloride, 0.1 mM calcium chloride, 20 mM HEPES buffer at pH 7.3, 150 mM sodium chloride, 0.01% Triton X-100, 2% DMSO, and 3 nM of the fluorescein-labeled peptide. Running the assays in 384-well plates, the integrin protein was pre-incubated with the test compounds for 15 minutes at 22° C. before the fluorescein-labeled peptide was added. After the fluorescein-labeled peptide was added, the assay was incubated at 22° C. for 1 hour and fluorescence polarization was measured. IC50 values were determined by non-linear regression, four-parameter curve fitting.
Take `Cc1cc(-c2c(C)ccc(F)c2C)cc([C@H](CC(=O)O)NC(=O)C(CC(C)C)n2cc(CCN3CCC3)c(C(F)(F)F)cc2=O)c1F` (single isomer, unassigned) [AF-P2]: the 50% inhibitory concentration (IC50) was at most 10 nM.
Next, `Cc1ccn([C@@H](NC(C)C)C(=O)N[C@@H](CC(=O)O)c2cncc(-c3c(C)cccc3C)c2)c(=O)c1` [Example C-7, reference compound]: at most 10 nM; `Cc1ccn([C@@H](CC(C)C)C(=O)N[C@H](CC(=O)O)c2cncc(-c3c(C)cccc3C)c2)c(=O)c1` [Example C-28, reference compound]: 10 to 500 nM.
Next, `Cc1ccc(F)c(C)c1-c1cc(C2CC2)c(F)c([C@H](CC(=O)O)NC(=O)[C@H](CC(C)C)n2cc(CCN3CCC3)c(C(F)(F)F)cc2=O)c1F` [HH-P2, (3S)-3-(2-(5-(2-(azetidin-1-yl)ethyl)-2-oxo-4-(trifluoromethyl)pyridin-1(2H)-yl)-4-methylpentanamido)-3-(5-cyclopropyl-2,3′,4-trifluoro-2′,6′-dimethyl-[1,1′-biphenyl]-3-yl)propanoic Acid]: at most 10 nM.
Under `Cc1cc(C)c(-c2cc(C3CC3)c(F)c([C@H](CC(=O)O)NC(=O)[C@H](CC(C)C)n3cc(CCN4CCC4)c(C(F)(F)F)cc3=O)c2F)c(C)c1` [HM-P2, (3S)-3-(2-(5-(2-(azetidin-1-yl)ethyl)-2-oxo-4-(trifluoromethyl)pyridin-1(2H)-yl)-4-methylpentanamido)-3-(5-cyclopropyl-2,4-difluoro-2′,4′,6′-trimethylbiphenyl-3-yl)propanoic Acid] stands at most 10 nM.
For `Cc1cc(C2CC2)cc(C)c1-c1cc(C(F)(F)F)c(F)c([C@H](CC(=O)O)NC(=O)[C@H](CC(C)C)n2cc(CCCN(C)C)c(C(F)(F)F)cc2=O)c1F` [HU-P2, (3S)-3-(4′-cyclopropyl-2,4-difluoro-2′,6′-dimethyl-5-(trifluoromethyl)-[1,1′-biphenyl]-3-yl)-3-(2-(5-(3-(dimethylamino)propyl)-2-oxo-4-(trifluoromethyl)pyridin-1(2H)-yl)-4-methylpentanamido)propanoic Acid], the half-maximal inhibitory concentration (IC50) was at most 10 nM.
As for `Cc1cc(F)cc(C)c1-c1cc(C(F)(F)F)c(F)c([C@H](CC(=O)O)NC(=O)[C@H](CC(C)C)n2cc(CCCN(C)C)c(C(F)(F)F)cc2=O)c1F` [HW-P2, (3S)-3-(2-(5-(3-(dimethylamino)propyl)-2-oxo-4-(trifluoromethyl)pyridin-1(2H)-yl)-4-methylpentanamido)-3-(2,4,4′-trifluoro-2′,6′-dimethyl-5-(trifluoromethyl)-[1,1′-biphenyl]-3-yl)propanoic Acid], the IC50 is at most 10 nM.
Next, `Cc1cc(C)c(-c2cc(C(F)(F)F)c(F)c([C@H](CC(=O)O)NC(=O)[C@H](CC(C)C)n3cc(CCCN(C)C)c(C(F)(F)F)cc3=O)c2F)c(C)c1` [HZ-P2, (3S)-3-(2,4-difluoro-2′,4′,6′-trimethyl-5-(trifluoromethyl)biphenyl-3-yl)-3-(2-(5-(3-(dimethylamino)propyl)-2-oxo-4-(trifluoromethyl)pyridin-1(2H)-yl)-4-methylpentanamido)propanoic Acid]: at most 10 nM.
Next, `Cc1cc(-c2c(C)cc(F)cc2C)cc([C@H](CC(=O)O)NC(=O)[C@H](CC(C)C)n2cc(CCN(C)C)cc(C(F)F)c2=O)c1F` [I-P2, (3S)-3-(4,4′-difluoro-2′,5,6′-trimethyl-[1,1′-biphenyl]-3-yl)-3-(2-(3-(difluoromethyl)-5-(2-(dimethylamino)ethyl)-2-oxopyridin-1(2H)-yl)-4-methylpentanamido)propanoic Acid]: at most 10 nM; `Cc1cc(C)c(-c2cc(C(F)(F)F)c(F)c([C@H](CC(=O)O)NC(=O)[C@H](CC(C)C)n3cc(CCN(C)C)c(C(F)(F)F)cc3=O)c2F)c(C)c1` [IF-P2, (3S)-3-(2,4-difluoro-2′,4′,6′-trimethyl-5-(trifluoromethyl)-[1,1′-biphenyl]-3-yl)-3-(2-(5-(2-(dimethylamino)ethyl)-2-oxo-4-(trifluoromethyl)pyridin-1(2H)-yl)-4-methylpentanamido)propanoic Acid]: at most 10 nM; `Cc1cc(C)c(-c2cc(C(F)(F)F)c(F)c([C@H](CC(=O)O)NC(=O)[C@H](CC(C)C)n3cc(CCN4CCC4)c(C(F)(F)F)cc3=O)c2F)c(C)c1` [IG-P2, (3S)-3-(2-(5-(2-(azetidin-1-yl)ethyl)-2-oxo-4-(trifluoromethyl)pyridin-1(2H)-yl)-4-methylpentanamido)-3-(2,4-difluoro-2′,4′,6′-trimethyl-5-(trifluoromethyl)biphenyl-3-yl)propanoic Acid]: at most 10 nM.
Next, `Cc1cc(C)c(-c2cc(C)c(F)c([C@H](CC(=O)O)NC(=O)[C@H](CC(C)C)n3cc(CCCN(C)C)c(C(F)(F)F)cc3=O)c2F)c(C)c1F` [IW-P2, (3S)-3-(2-(5-(3-(dimethylamino)propyl)-2-oxo-4-(trifluoromethyl)pyridin-1(2H)-yl)-4-methylpentanamido)-3-(2,3′,4-trifluoro-2′,4′,5,6′-tetramethyl-[1,1′-biphenyl]-3-yl)propanoic Acid]: at most 10 nM; `Cc1cc(F)c(C)c(C)c1-c1cc(C(F)(F)F)c(F)c([C@H](CC(=O)O)NC(=O)[C@H](CC(C)C)n2cc(CCN3CCC3)c(C(F)(F)F)cc2=O)c1F` [KT-P2, (3S)-3-(2-(5-(2-(azetidin-1-yl)ethyl)-2-oxo-4-(trifluoromethyl)pyridin-1(2H)-yl)-4-methylpentanamido)-3-(2,4,4′-trifluoro-2′,3′,6′-trimethyl-5-(trifluoromethyl)-[1,1′-biphenyl]-3-yl)propanoic Acid]: at most 10 nM.

(Values after patent US11370773B1, “Inhibiting human integrin (alpha-4) (beta-7)” (Morphic Therapeutic, Inc., priority 2019, dated 2022).)
